“Also recorded” adds a separate entry of the source.
Assays:
[1] = test system: splenic macrophages (sMΦ) and peritoneal macrophages (pMΦ); experiment: Splenic and peritoneal macrophage cytokine release after trauma-hemorrhage (ex vivo, LPS); format: in vivo, mouse; details: 24 h after trauma-hemorrhage, LPS 48 h
Protocol: Experimental groups. Ovariectomy was performed in female CBA/J mice 2 wk before trauma-hemorrhage using two dorsolateral incisions. […] Two weeks after ovariectomy, the animals were divided into four groups. Groups 1 and 2 consisted of sham-operated ovariectomized females, which were neither hemorrhaged nor resuscitated. Animals in groups 3 and 4 consisted of ovariectomized females, which were subjected to the trauma-hemorrhage procedure. Immediately before initiation of fluid resuscitation, animals in groups 1 and 3 received a subcutaneous injection of vehicle ([…] corn oil), and animals in groups 2 and 4 were treated with E2 ([…]/25 g body wt dissolved in […] corn oil). Each group consisted of 7-8 animals.
Trauma-hemorrhage procedure. Mice in the trauma-hemorrhage groups were lightly anesthetized with methoxyflurane (Metofane; Pitman Moore, Mundelein, Ill.) and restrained in a supine position, and a 2.5-cm midline laparotomy (i.e., soft tissue trauma induced) was performed, which was then closed aseptically in two layers using 6-0 Ethilon sutures (Ethicon, Somerville, N.J.). Both femoral arteries were then aseptically cannulated with polyethylene-10 tubing (Clay-Adams, Parsippany, N.J.) using a minimal dissection technique, and the animals were allowed to awaken. Blood pressure was constantly monitored by attaching one of the catheters to a blood pressure analyzer (Micro-Med, Louisville, Ky.). Lidocaine was applied to the incision sites to provide analgesia during the study period. Upon awakening, the animals were bled through the other catheter to a mean arterial blood pressure of 35±5 mmHg (mean arterial blood pressure prehemorrhage was 95±5 mmHg), which was maintained for 90 min. At the end of that procedure, the animals were resuscitated with four times the shed blood volume in the form of lactated Ringer solution. The catheters were then removed, the vessels were ligated, and the groin incisions were closed. Sham-operated animals underwent the same surgical procedure, which included ligation of both femoral arteries, but neither hemorrhage nor fluid resuscitation was carried out. There was no mortality observed in this model of trauma-hemorrhage.
Preparation of sMΦ and pMΦ culture. Spleens were harvested aseptically, and sMΦ cultures were established as previously described in detail (Zellweger 1996). Resident pMΦ were harvested by peritoneal lavage at 24 h after sham operation or trauma-hemorrhage and resuscitation, and monolayers were established as previously described (Ayala 1990). The monolayers of sMΦ and pMΦ (1×10^6 cells/ml) were stimulated with […] of lipopolysaccharide W/ml Click's medium containing 10% heat-inactivated FBS for 48 h at 37° C., 5% CO2, and 90% humidity to assess the cells' ability to release cytokines (Lipopolysaccharide W was from Escherichia coli 055:B5, Difco Laboratories, Detroit, Mich.) At the end of the incubation period, the culture supernatants were removed, centrifuged at 300 g for 15 min, divided into aliquots, and stored.
IL-10 concentrations in macrophage and splenocyte supernatants and IFN-γ levels in the splenocyte supernatants were determined using sandwich-enzyme-linked immunosorbent assay technique (ELISA) according to the manufacturer's recommendations (BD OptEIA ELISA set; BD Pharmingen, San Diego, Calif.).
IL-6 activity was determined by assessing the 72-h proliferation of the IL-6-dependent murine B cell hybridoma 7TD1 stimulated by serial dilutions of sMΦ and pMΦ supernatants (Ayala 1992). For the last 3 h of incubation, […] of a 3-(4,5-dimethylthiazol-2-yl)-2,5-diphenyltetrazolium bromide solution (5 mg/ml in RPMI 1640; Sigma Chemical, St. Louis, Mo.) was added to each well. The amount of dark blue formazan crystal formation was then measured spectrophotometrically. […]

[2] = test system: Male SD rats; experiment: Survival and blood pressure after trauma-hemorrhage with 60% blood loss and no fluid resuscitation; format: in vivo, rat
Protocol: 16 rats were subjected to 60% removal of blood volume, using the same protocol found in Example 5.
Furthermore, crystalloid fluid resuscitation was administered following an initial 3-hour interval after the trauma and major blood loss, and rats were followed for 7 days. It has been observed that rats which survive for the initial 3 hours uniformly go on to survive for prolonged period of time and were then sacrificed. The survival rate is 68% for estrogen-treated rats, while all untreated control rats have died within the initial 3-hour interval (see FIG. 21).
(§1) Although E2 administration after trauma-hemorrhage (T-H) and fluid resuscitation produces salutary effects on organ functions, it was not known if E2 has any beneficial effects after major blood loss in the absence of fluid resuscitation. Male SD rats ˜250 g) underwent T-H (tissue trauma, BP 40 mmHg in 10 min and maintained at that BP by further blood withdrawal until maximum bleed out (MBO, 60% of total blood volume) occurred (45:t5 min)). E2 i.v. (1 mg/Kg, 0.4 ml/Kg volume, i.e., 120 μL/300 g body weight) or vehicle (cyclodextrin, CD) was then infused. No additional fluid was given for 3 hours. If rats survived, they received Ringer's lactate, 4× the MBO volume. A custom-fabricated 31p coil was placed on the surface of the rat's liver after laparotomy in another group, and spectra acquired using 4.7T NMR spectroscopy via a 31p coil in real time before and during hemorrhagic shock. Shock increased phosphomonoester and Pi with a concomitant decrease in β-ATP in both groups.

[3] = test system: liver ATP and pH; experiment: 31P NMR spectroscopy of liver ATP and intracellular pH during hemorrhagic shock; format: in vivo, rat; details: FIG. 23; vs cyclodextrin control; listed as E2
Protocol: Imaging and nuclear magnetic resonance studies were conducted to evaluate the effects of E2 on preservation of adenosine triphosphate (ATP) and pH levels in the liver.
The traumatic injury can involve a reduction in cellular ATP levels as compared to control ATP levels. By “control” is meant levels as measured before the traumatic injury, or levels that are considered in the “normal” range for the subject. Imaging and nuclear magnetic resonance studies have also been conducted to evaluate the effects of E2 on preservation of adenosine triphosphate (ATP) and pH levels in the liver.
as §1, with “A custom-fabricated 31p coil was placed on the surface of the rat's liver after laparotomy in another group, and spectra acquired using 4.7T NMR spectroscopy via a 31p coil in real time before and during hemorrhagic shock. Shock increased phosphomonoester and Pi with a concomitant decrease in β-ATP in both groups.” left out

[4] = test system: degenerate neurons; experiment: Traumatic brain injury: Fluro-Jade staining of degenerate neurons; format: in vivo, rat; details: brain cortex or CA 2/3 hippocampus, 24 hours after 1 mg/kg iv given 1 hour after LFP TBI
Excerpt: As such, the lesser the FJ staining, the greater the neuroprotection. Sections stained with FJ are quantified as FJ positive cells, and are taken from brain cortex or CA 2/3 region of the hippocampus. The groups shown in the graph above are sham+vehicle, sham+E2, TBI+vehicle and TBI+E2.

[5] = rat, in vivo, iv

## C[C@]12CC[C@@H]3c4ccc(O)cc4CC[C@H]3[C@@H]1CC[C@@H]2O [17β-estradiol]
[1]
  pMΦ IL-1β release: partial restoration of pMΦ IL-1β release
  pMΦ IL-6 production: maintained at sham levels
  pMΦ IL-10 production: not affected by either trauma-hemorrhage or E2 treatment
  sMΦ IL-6 release: did not influence IL-6 release
  sMΦ IL-10 release: significantly reduced IL-10 release
  sMΦ IL-12 production: prevented the depression in sMΦ IL-12 production
[2]; E2 i.v. 1 mg/Kg, 0.4 ml/Kg at MBO (60% of total blood volume), vehicle cyclodextrin
  3-hour survival rates without fluid resuscitation: markedly improves 3-hour survival rates
[2]; Ringer's lactate 4x MBO volume after 3 hours
  long-term survival after resuscitation: increases long-term survival after resuscitation
[3]
  intracellular pH in liver: maintenance of pH near neutral; also recorded: pH remains near neutral
[4]
  Fluro-Jade positive cells (neurodegeneration): greater that twofold fewer cells undergoing neurodegeneration
[5]
  blood levels after injection: attains high blood levels rapidly
